Activity calls are given as the source filed them. The calls are words filed in the database; no cut-off is given here.
Tests used:
[1] = Solubility of the compound in water; assay type: physicochemical
[2] = test system: Chorioallantoic membrane; experiment: Antiangiogenic activity in chicken fertilized egg chorioallantoic membrane at 30 uM after 48 hrs by microscopic analysis; assay type: functional, tissue-based; conditions: Gallus gallus
[3] = test system: EA.hy 926; experiment: Anti-migratory activity against human EAhy926 cells assessed as inhibition of VEGF-induced cell migration towards wound area after 24 hrs by phase contrast microscopic analysis; assay type: functional, cell-based
[4] = test system: EA.hy 926; experiment: Antiangiogenic activity in human EAhy926 cells assessed as inhibition of VEGF-induced capillary tube formation after 24 hrs by matrigel based phase contrast microscopic analysis; assay type: functional, cell-based

| SMILES | solubility [1] | further results |
| --- | --- | --- |
| COc1ccc(-c2nc(CNCCCCCNCc3cc4c5ccccc5n(C)c4c(-c4ccc(OC)cc4)n3)cc3c4ccccc4n(C)c23)cc1.Cl | > 10000 µg/mL |  |
| CC(C)c1nc(CNCCCNCc2cc3c4ccccc4n(Cc4ccccc4)c3c(C(C)C)n2)cc2c3ccccc3n(Cc3ccccc3)c12.Cl | > 10000 µg/mL |  |
| CCCCn1c2ccccc2c2cc(CNCCCCCNCc3cc4c5ccccc5n(CCCC)c4c(C(C)C)n3)nc(C(C)C)c21.Cl | > 10000 µg/mL |  |
| CC(C)c1nc(CNCCCCCNCc2cc3c([nH]c4ccccc43)c(C(C)C)n2)cc2c1[nH]c1ccccc12.Cl | > 10000 µg/mL |  |
| Cc1nc(CNCCCCCCNCc2cc3c4ccccc4n(C)c3c(C)n2)cc2c3ccccc3n(C)c12.Cl | > 10000 µg/mL |  |
| Cc1nc(CNCCCNCc2cc3c4ccccc4n(CCCc4ccccc4)c3c(C)n2)cc2c3ccccc3n(CCCc3ccccc3)c12.Cl | > 10000 µg/mL |  |
| Cc1nc(CNCCCCNCc2cc3c4ccccc4n(C(C)C)c3c(C)n2)cc2c3ccccc3n(C(C)C)c12.Cl | > 10000 µg/mL |  |
| COc1ccc(-c2nc(CNCCCCCNCc3cc4c5ccccc5n(C)c4c(-c4ccc(OC)cc4)n3)cc3c4ccccc4n(C)c23)cc1 |  | Activity [2]: Active; inhibition [3]: Dose-dependent effect; inhibition [4]: Dose-dependent effect |
